Some results are limits rather than exact numbers.

wt human LRRK2, catalytic site, sequence (Q5S007 1879-2138): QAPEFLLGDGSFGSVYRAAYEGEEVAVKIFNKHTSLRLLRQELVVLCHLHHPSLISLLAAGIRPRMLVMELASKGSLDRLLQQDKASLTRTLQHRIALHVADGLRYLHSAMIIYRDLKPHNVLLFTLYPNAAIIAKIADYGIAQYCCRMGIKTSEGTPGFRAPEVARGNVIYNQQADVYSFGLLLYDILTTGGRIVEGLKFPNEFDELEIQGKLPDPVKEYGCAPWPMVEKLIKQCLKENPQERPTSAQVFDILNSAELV

The assay has as its target wt human LRRK2, catalytic site (Homo sapiens (Human), UniProt Q5S007). Put plainly: TR-FRET LanthaScreen Tb Kinase Activity Assay (LRRK2 kinase inhibition). Format: biochemical. As to conditions: 2 nM wt human LRRK2, 400 nM fluorescein-ERM (LRRKtide) peptide, 38 μM ATP, 120 minutes at room temperature. An outline of the steps:
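LanthaScreen TR-FRET with 2 nM wt human LRRK2 catalytic site, 400 nM fluorescein-ERM (LRRKtide) peptide and 38 µM ATP in Kinase Buffer A; 120 min at room temperature. Phosphorylation detected with EDTA and Tb-anti-pLRRKtide after 60 min; IC50 from emission ratios.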
Take `CS(=O)(=O)n1ncc2c(Nc3ncc(C(F)(F)F)c(N[C@H]4CCOC4)n3)cccc21` [Example 149, (S)—N^2-(1-(Methylsulfonyl)-1H-indazol-4-yl)-N^4-(tetrahydrofuran-3-yl)-5-(trifluoromethyl)pyrimidine-2,4-diamine]: the IC50 (usually the point on the concentration scale where inhibition reaches its midpoint) was under 50 nM. Then `CNc1cc(Nc2nn(C)c3ncncc23)ncc1C(F)(F)F` [Example 128, N^4-methyl-N^2-(1-methyl-1H-pyrazolo[3,4-d]pyrimidin-3-yl)-5-(trifluoromethyl)pyridine-2,4-diamine], with 50 to 200 nM. Then `CNc1nc(Nc2cc(CC#N)cc3[nH]ncc23)ncc1C(F)(F)F` [Example 50, 2-(4-((4-(methylamino)-5-(trifluoromethyl)pyrimidin-2-yl)amino)-1H-indazol-6-yl)acetonitrile], with under 50 nM; and `CCNc1nc(Nc2cccc3c2cnn3C)ncc1C(F)(F)F` [Example 69, N4-ethyl-N2-(1-methyl-1H-indazol-4-yl)-5-(trifluoromethyl)pyrimidine-2,4-diamine], with under 50 nM. The figure for `N#CCn1ncc2c(Nc3ncc(C(F)(F)F)c(NC4CC4)n3)cccc21` [Example 93] is under 50 nM; for `CNc1nc(Nc2cccc3c2CC(=O)N3)ncc1C(F)(F)F` [Example 127, 4-[[4-(methylamino)-5-(trifluoromethyl)pyrimidin-2-yl]amino]indolin-2-one] it is under 50 nM; for `O=S(=O)(C1CC1)n1ncc2c(Nc3ncc(C(F)(F)F)c(NC4CC4)n3)ccc(F)c21` [Example 153, N^4-cyclopropyl-N^2-(1-(cyclopropylsulfonyl)-7-fluoro-1H-indazol-4-yl)-5-(trifluoromethyl) pyrimidine-2,4-diamine] it is under 50 nM. Take `CNc1nc(Nc2ccc3c4c2cnn4CCO3)ncc1C(F)(F)F` [Example 178, N^4-methyl-N^2-(9-oxa-1,2-diazatricyclo[6.3.1.04,12]dodeca-2,4,6,8(12)-tetraen-5-yl)-5-(trifluoromethyl)pyrimidine-2,4-diamine]: the IC50 was under 50 nM. The figure for `O=S(=O)(C1CC1)n1ncc2c(Nc3ncc(C(F)(F)F)c(NC4CC4)n3)cccc21` [Example 78, N4-cyclopropyl-N2-(1-(cyclopropylsulfonyl)-1H-indazol-4-yl)-5-(trifluoromethyl)pyrimidine-2,4-diamine] is under 50 nM. Then `CNc1nc(Nc2ccc3cnn(CC#N)c3c2)ncc1C(F)(F)F` [Example 16, 2-(6-((4-(methylamino)-5-(trifluoromethyl)pyrimidin-2-yl)amino)-1H-indazol-1-yl)acetonitrile], with under 50 nM. Then `FC(F)(F)c1cnc(Nc2ccc3c4c2cnn4CCCO3)nc1NC1CC1` [Example 160, N^4-cyclopropyl-N^2-(9-oxa-1,2-diazatricyclo[6.4.1.04,13]trideca-2,4,6,8(13)-tetraen-5-yl)-5-(trifluoromethyl)pyrimidine-2,4-diamine], with under 50 nM.

`CNc1nc(Nc2ccc3cn(C)nc3c2)ncc1C(F)(F)F` [Example 17, N4-methyl-N2-(2-methyl-2H-indazol-6-yl)-5-(trifluoromethyl)pyrimidine-2,4-diamine] registered an IC50 of under 50 nM. The figure for `CNc1nc(Nc2ccc3c4c2cnn4CCCO3)ncc1C(F)(F)F` [Example 161] is under 50 nM; for `CCNc1nc(Nc2cccc3c2cnn3C(C)(C)C#N)ncc1C(F)(F)F` [Example 154, 2-(4-((4-(ethylamino)-5-(trifluoromethyl)pyrimidin-2-yl)amino)-1H-indazol-1-yl)-2-methylpropanenitrile] it is under 50 nM; for `FC(F)(F)c1cnc(Nc2ccc3c4c2cnn4CCO3)nc1NC1CC1` [Example 179, N^4-cyclopropyl-N^2-(2,3-dihydro-[1,4]oxazino[2,3,4-hi]indazol-7-yl)-5-(trifluoromethyl)pyrimidine-2,4-diamine] it is under 50 nM. In turn, `CNc1nc(Nc2cccc3c2cnn3CC#N)ncc1C(F)(F)F` [Example 30, 2-(4-((4-(methylamino)-5-(trifluoromethyl)pyrimidin-2-yl)amino)-1H-indazol-1-yl)acetonitrile] showed an IC50 of under 50 nM. `CNc1nc(Nc2cc(CCC(=O)N3CCOCC3)cc3[nH]ncc23)ncc1C(F)(F)F` [Example 53, 3-(4-((4-(methylamino)-5-(trifluoromethyl)pyrimidin-2-yl)amino)-1H-indazol-6-yl)-1-morpholinopropan-1-one] had an IC50 of 50 to 200 nM. In turn, `CNc1nc(Nc2cc3[nH]ncc3cc2C(F)(F)F)ncc1C(F)(F)F` [Example 123, N^4-methyl-5-(trifluoromethyl)-N^2-[5-(trifluoromethyl)-1H-indazol-6-yl]pyrimidine-2,4-diamine] gave an IC50 of at least 200 nM. Consider `CNc1nc(Nc2cc(/C=C/C(=O)N3CCOCC3)cc3[nH]ncc23)ncc1C(F)(F)F` [Example 52], for which the IC50 is under 50 nM. Then `CCNc1nc(Nc2cccc3c2cnn3S(C)(=O)=O)ncc1Cl` [Example 152, 5-chloro-N4-ethyl-N^2-(1-(methylsulfonyl)-1H-indazol-4-yl)pyrimidine-2,4-diamine], with under 50 nM. Regarding `CNc1nc(Nc2cnn3cc(C#N)ccc23)ncc1C(F)(F)F` [Example 119, 3-((4-(methylamino)-5-(trifluoromethyl)pyrimidin-2-yl)amino)pyrazolo[1,5-a]pyridine-6-carbonitrile], the IC50 was under 50 nM.

As for `CCS(=O)(=O)n1ncc2c(Nc3ncc(C(F)(F)F)c(NC4CC4)n3)cccc21` [Example 143, N^4-cyclopropyl-N^2-(1-ethylsulfonylindazol-4-yl)-5-(trifluoromethyl)pyrimidine-2,4-diamine], the IC50 is under 50 nM.

The compound `FC(F)(F)c1cnc(Nc2cccc3c2cnn3CC2COC2)nc1NC1CC1` [Example 197, N^4-cyclopropyl-N^2-(1-(oxetan-3-ylmethyl)-1H-indazol-4-yl)-5-(trifluoromethyl) pyrimidine-2,4-diamine] came in with an IC50 of 50 to 200 nM. Compound `CNc1nc(Nc2c(C)nn3c(C#N)cccc23)ncc1C(F)(F)F` [Example 65, 2-methyl-3-((4-(methylamino)-5-(trifluoromethyl)pyrimidin-2-yl)amino)pyrazolo[1,5-a]pyridine-7-carbonitrile] yielded an IC50 of at least 200 nM. In turn, `CNc1nc(Nc2cc(F)cc3c2cnn3CC#N)ncc1C(F)(F)F` [Example 91, 2-(6-fluoro-4-((4-(methylamino)-5-(trifluoromethyl)pyrimidin-2-yl)amino)-1H-indazol-1-yl)acetonitrile] came in with a half-maximal inhibitory concentration (IC50) of under 50 nM. Turning to `CNc1nc(Nc2cc(C)cc3c2cnn3C)ncc1C(F)(F)F` [Example 45, N2-(1,6-dimethyl-1H-indazol-4-yl)-N4-methyl-5-(trifluoromethyl)pyrimidine-2,4-diamine], the IC50 is under 50 nM.

`CC1(Nc2nc(Nc3cccc4c3cnn4CCS(C)(=O)=O)ncc2C(F)(F)F)CC1` [Example 191, N^4-(1-methylcyclopropyl)-N^2-(1-(2-(methylsulfonyl)ethyl)-1H-indazol-4-yl)-5-(trifluoromethyl)pyrimidine-2,4-diamine] had an IC50 of under 50 nM. The figure for `CC(C)(C#N)Cn1ncc2c(Nc3ncc(C(F)(F)F)c(NC4CC4)n3)cccc21` [Example 200, 3-[4-[[4-(cyclopropylamino)-5-(trifluoromethyl)pyrimidin-2-yl]amino]indazol-1-yl]-2,2-dimethyl-propanenitrile] is under 50 nM; for `C[C@]1(n2ncc3c(Nc4ncc(C(F)(F)F)c(NC5CC5)n4)cccc32)CCOC1=O` [Example 167, (S)-3-(4-((4-(cyclopropylamino)-5-(trifluoromethyl)pyrimidin-2-yl)amino)-1H-indazol-1-yl)-3-methyldihydrofuran-2(3H)-one] it is under 50 nM. With `FC(F)Cn1ncc2c(Nc3ncc(C(F)(F)F)c(NC4CC4)n3)cccc21` [Example 134, N^4-cyclopropyl-N2-[1-(2,2-difluoroethyl)indazol-4-yl]-5-(trifluoromethyl) pyrimidine-2,4-diamine], the IC50 is under 50 nM. Turning to `CNc1nc(Nc2c(C)ccc3c2cnn3C)ncc1C(F)(F)F` [Example 36, N2-(1,5-dimethyl-1H-indazol-4-yl)-N4-methyl-5-(trifluoromethyl)pyrimidine-2,4-diamine], the IC50 lay in the range of 50 to 200 nM. As to `CNc1nc(Nc2cccc3nn(C)cc23)ncc1C(F)(F)F` [Example 34, N4-methyl-N2-(2-methyl-2H-indazol-4-yl)-5-(trifluoromethyl)pyrimidine-2,4-diamine], the IC50 is under 50 nM.

With `CNc1nc(Nc2ccc(C3CCN(C)CC3)c3c2cnn3C)ncc1C(F)(F)F` [Example 82, N4-methyl-N2-(1-methyl-7-(1-methylpiperidin-4-yl)-1H-indazol-4-yl)-5-(trifluoromethyl)pyrimidine-2,4-diamine], the IC50 is under 50 nM. The figure for `CN(C)c1nc(Nc2cccc3c2cnn3CC#N)ncc1C(F)(F)F` [Example 107, 2-(4-((4-(dimethylamino)-5-(trifluoromethyl)pyrimidin-2-yl)amino)-1H-indazol-1-yl)acetonitrile] is under 50 nM; for `FC(F)(F)c1cnc(Nc2cccc3c2cnn3C2CC2)nc1NC1CC1` [Example 190, N^4-cyclopropyl-N^2-(1-cyclopropyl-1H-indazol-4-yl)-5-(trifluoromethyl) pyrimidine-2,4-diamine] it is under 50 nM; for `CNc1nc(Nc2ccc(CC#N)c3c2cnn3C)ncc1C(F)(F)F` [Example 55, 2-(1-methyl-4-((4-(methylamino)-5-(trifluoromethyl)pyrimidin-2-yl)amino)-1H-indazol-7-yl)acetonitrile] it is under 50 nM. Then `O=S(=O)(C1CC1)n1ncc2c(Nc3ncc(C(F)(F)F)c(C4CC4)n3)cccc21` [Example 132, N-(4-cyclopropyl-5-(trifluoromethyl)pyrimidin-2-yl)-1-(cyclopropylsulfonyl)-1H-indazol-4-amine], with 50 to 200 nM.

The values are drawn from patent US20240174647A1 (NEURON23, INC., priority 2022, published 2024).
